In publication PMC10914731, “Homo-BacPROTAC-induced degradation of ClpC1 as a strategy against drug-resistant mycobacteria” (Nature Communications, 2024):
Values after ≈ are worked out from the molar mass of the structure shown. Values joined by “and” are separate entries in the source; they are usually repeats but may differ in a detail not shown here. Equal values may be shown once. Read-outs that look alike come from different tables or passages of the source. *1 amine or outer side, *2 acyl side, *3 side chain or, on linkers, in order; H or OH if unused. Where a SMILES comes first, the peptide text is derived from it. [ ]: non-standard residue; d: D form. X1 = C#CCn1cc(C[C@H](N[*:1])C(=O)[*:2])c2ccccc21; NMeLeu(5-OH,4R) = CN[C@@H](C[C@@H](C)CO)C(=O)O; Phe(βR-OMe) = CO[C@H](c1ccccc1)[C@H](N)C(=O)O; NMeL = CN[C@@H](CC(C)C)C(=O)O

Assays:
[1] = tested on: Mycobacterium avium; experiment: microbe, parasite or virus in culture; format: cell-based
[2] = molecular target: ClpC1-NTD substrate, M. tuberculosis ClpC1P1P2 (Mycobacterium tuberculosis, UniProt P9WPC9); experiment: biochemical; format: biochemical; conditions: Mtb
Sequence of ClpC1-NTD substrate, M. tuberculosis ClpC1P1P2 (P9WPC5 whole entry): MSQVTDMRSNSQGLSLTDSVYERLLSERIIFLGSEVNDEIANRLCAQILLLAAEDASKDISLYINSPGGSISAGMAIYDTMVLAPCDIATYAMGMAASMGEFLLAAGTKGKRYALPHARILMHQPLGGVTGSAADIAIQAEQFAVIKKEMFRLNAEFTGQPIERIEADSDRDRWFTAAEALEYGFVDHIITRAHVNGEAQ
Sequence of ClpC1-NTD substrate, M. tuberculosis ClpC1P1P2 (P9WPC9 whole entry): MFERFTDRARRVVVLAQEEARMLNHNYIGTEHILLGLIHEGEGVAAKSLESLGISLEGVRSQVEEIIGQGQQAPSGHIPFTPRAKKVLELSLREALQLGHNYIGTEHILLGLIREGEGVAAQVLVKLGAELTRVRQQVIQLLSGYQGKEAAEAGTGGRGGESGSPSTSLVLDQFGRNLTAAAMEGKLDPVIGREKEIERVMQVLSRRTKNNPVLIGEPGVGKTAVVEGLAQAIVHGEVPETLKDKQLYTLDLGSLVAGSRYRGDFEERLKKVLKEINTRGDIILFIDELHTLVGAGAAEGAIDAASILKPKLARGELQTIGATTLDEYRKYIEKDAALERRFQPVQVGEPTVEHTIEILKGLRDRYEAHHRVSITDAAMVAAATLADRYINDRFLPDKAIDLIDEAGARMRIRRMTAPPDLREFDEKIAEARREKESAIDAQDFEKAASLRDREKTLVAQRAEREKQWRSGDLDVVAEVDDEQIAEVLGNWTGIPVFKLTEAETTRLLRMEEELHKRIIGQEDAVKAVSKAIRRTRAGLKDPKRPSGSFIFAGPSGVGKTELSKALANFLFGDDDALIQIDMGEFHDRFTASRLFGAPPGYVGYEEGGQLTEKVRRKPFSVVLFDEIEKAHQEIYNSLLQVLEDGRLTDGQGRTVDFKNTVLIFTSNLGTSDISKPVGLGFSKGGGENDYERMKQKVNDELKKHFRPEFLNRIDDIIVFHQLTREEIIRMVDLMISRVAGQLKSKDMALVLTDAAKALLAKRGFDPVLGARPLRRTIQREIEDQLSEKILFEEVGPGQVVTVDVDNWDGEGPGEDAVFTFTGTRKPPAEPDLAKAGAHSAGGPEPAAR
Sequence of ClpC1-NTD substrate, M. tuberculosis ClpC1P1P2 (P9WPC3 whole entry, further chain): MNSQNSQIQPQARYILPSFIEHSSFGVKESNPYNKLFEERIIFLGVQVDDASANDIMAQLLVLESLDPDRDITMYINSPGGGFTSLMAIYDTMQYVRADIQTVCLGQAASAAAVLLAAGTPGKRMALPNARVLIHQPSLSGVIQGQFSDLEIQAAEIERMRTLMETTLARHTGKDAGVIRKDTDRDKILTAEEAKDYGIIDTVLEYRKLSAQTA

[3] = tested on: M. tuberculosis H37Rv (ATCC 27294); experiment: microbe, parasite or virus in culture; format: cell-based
[4] = tested on: Mycobacterium fortuitum; experiment: microbe, parasite or virus in culture; format: cell-based
[5] = tested on: Mtb ATCC 35825; experiment: microbe, parasite or virus in culture; format: cell-based
[6] = tested on: Msm #607; experiment: Minimum bactericidal concentration (MBC), Msm #607; format: cell-based, Mycobacterium smegmatis; conditions: Mycolicibacterium smegmatis
[7] = tested on: Mtb H37Rv; experiment: Minimum bactericidal concentration (MBC), Mtb H37Rv; format: cell-based, Mycobacterium tuberculosis; conditions: Mycobacterium tuberculosis, H37RV
[8] = tested on: Mtb # 11291; experiment: microbe, parasite or virus in culture; format: cell-based; conditions: single well replicates
[9] = tested on: Enterococcus faecium; experiment: MIC ESKAPES panel, Enterococcus faecium; format: cell-based
Method: Minimum inhibitory concentration (MIC) against ESKAPES panel of Gram positive and Gram negative pathogens (Enterococcus faecium, Staphylococcus aureus, Klebsiella pneumoniae, Acinetobacter baumannii, Pseudomonas aeruginosa, Enterobacter cloacae and Salmonella typhimurium [ESKAPES panel]) were determined at the FNDR by the standard broth dilution method [CLSI, M100]. […] Mueller Hinton broth (MHB) medium was used to grow ESKAPES panel strains. The individual cultures were added as 200 μL (inoculum of 3–7 × 10^5 cfu/ml) to the respective assay plates in each well to all columns, except the media control (200 μL of medium). […] The assay plates were incubated at 37 °C, and the results were noted on the 2nd day as turbidometric readout. The clear wells indicated inhibition of growth, while the turbid wells indicated uninhibited growth.

[10] = tested on: replicating Mtb H37Rv cells; experiment: Resazurin growth assay, replicating Mtb H37Rv (Supplementary Fig. 2); format: cell-based, Mycobacterium tuberculosis; conditions: Conc. 0.0488281 µM; three replicate columns
[11] = Experiment 2, three replicate columns

With `C#CCn1cc(C[C@@H]2NC(=O)[C@H](C(C)C)NC(=O)[C@H](CC(C)C)N(C)C(=O)[C@H](C(C)C)NC(=O)[C@H]([C@H](OC)c3ccccc3)NC(=O)[C@H](C)NC(=O)[C@H](C[C@@H](C)CO)N(C)C2=O)c2ccccc21` [Compound 5] (cyclo(A[Phe(βR-OMe)]V[NMeL]V[X1][NMeLeu(5-OH,4R)])) the MIC ([1]; Experiment 1, read-out: MIC Mycobacterium avium) was 6.3 µM, the “MIC (µg/ml) Mycobacterium avium” value [1, 11] was 5.88 µg/mL (≈ 6.25 µM) and the MIC ([1]; Experiment 2, three replicate columns, read-out: MIC (µM) Mycobacterium avium) was 6.25 µM. The MIC ([1]; Mycobacterium avium, Experiment 1, read-out: MIC Mycobacterium avium) was 5.9 µg/mL, the MIC ([1]; Mycobacterium avium, Experiment 2, three replicate columns, read-out: MIC (µM) Mycobacterium avium) was 6.25 µM and the MIC ([1]; Mycobacterium avium, Experiment 2, three replicate columns, read-out: MIC (µg/ml) Mycobacterium avium) was 5.88 µg/mL. The MIC ([1]; Mycobacterium avium, mean ± SD, read-out: MIC Mycobacterium avium) was 6.3 µM, the DC50 ([2]; Measurement 1-4, read-out: DC50, single measurements) was > 100 µM and the DC50 ([2]; mean of the measurements, read-out: DC50, Mean) was > 100 µM. The MIC ([3]; M. tuberculosis H37Rv 27294, single well replicates, read-out: MIC) was 3.125 µM (2×) and 1.56 µM, the MIC ([3]; Mycobacterium tuberculosis, M. tuberculosis H37Rv strain, read-out: MIC Mtb H37Rv Mean ± SD) was 1.6 µM (≈ 1.51 µg/mL) and the MIC ([3]; Mycobacterium tuberculosis, Mtb H37Rv (Supplementary Table 2), read-out: MIC Mtb) was 1.6 µM (≈ 1.51 µg/mL). The MIC ([3]; Mycobacterium tuberculosis, Mtb H37Rv, mean ± SD, n = 3 well replicates, read-out: MIC) was 2.6 ± 0.9 µM (≈ 2.45 µg/mL), the MIC ([3]; Mycobacterium tuberculosis, Set 1, read-out: MIC (Mtb H37Rv) Set 1) was 1.56 µM and 1.47 µg/mL and the MIC ([3]; Mycobacterium tuberculosis, Set 2, read-out: MIC (Mtb H37Rv) Set 2) was 1.56 µM and 1.47 µg/mL. The MIC ([3]; Mycobacterium tuberculosis, Set 3, done at a different day than Set 1 and Set 2, read-out: MIC (Mtb H37Rv) Set 3) was 1.56 µM and 1.47 µg/mL, the MIC ([3]; Mycobacterium tuberculosis, individual example (Supplementary Table 11), read-out: MIC Mtb H37Rv) was 1.6 µM and 1.5 µg/mL and the MIC ([3]; Mycobacterium tuberculosis, individual measurements (source data), read-out: Mtb MIC) was 1.56 µM (≈ 1.47 µg/mL). For the same compound, the MIC ([3]; Mycobacterium tuberculosis, mean of 3 experiments +/- SD, unit taken from the sets above in the same table, read-out: MIC data (Mtb H37Rv) (+/- SD)) was 1.56 µM and 1.47 µg/mL, the MIC ([3]; Mycobacterium tuberculosis, single determinations, read-out: Mtb MIC) was 1.56 µM (≈ 1.47 µg/mL) and the MIC ([4]; Experiment 1, read-out: MIC Mycobacterium fortuitum) was 6.3 µM. For the same compound, the “MIC (µg/ml) Mycobacterium fortuitum” value [4, 11] was 5.88 µg/mL (≈ 6.25 µM), the MIC ([4]; Experiment 2, three replicate columns, read-out: MIC (µM) Mycobacterium fortuitum) was 6.25 µM and the MIC ([4]; Mycolicibacterium fortuitum, Experiment 1, read-out: MIC Mycobacterium fortuitum) was 5.9 µg/mL. The MIC ([4]; Mycolicibacterium fortuitum, Experiment 2, three replicate columns, read-out: MIC (µM) Mycobacterium fortuitum) was 6.25 µM, the MIC ([4]; Mycolicibacterium fortuitum, Experiment 2, three replicate columns, read-out: MIC (µg/ml) Mycobacterium fortuitum) was 5.88 µg/mL and the MIC ([4]; Mycolicibacterium fortuitum, mean ± SD, read-out: MIC Mycobacterium fortuitum) was 6.3 µM. The MIC ([5]; Mycobacterium tuberculosis, ATCC35825, mean, n = 2 well replicates) was 0.2 µM and 0.2 µg/mL, the MIC ([5]; Mycobacterium tuberculosis, ATCC35825, single well replicates) was 0.18 µg/mL and 0.19 µM and the MIC ([5]; single well replicates) was 0.19 µM (≈ 0.179 µg/mL). For the same compound, the “MIC Mtb ATCC 35825” value ([5]; single well replicates) was 0.18 µg/mL (≈ 0.191 µM), the MBC ([6]; ATCC607, read-out: MBC (from Set 3) Msm ATCC 607) was > 47 µg/mL and > 50 µM and the MBC ([6]; read-out: MBC Msm #607, individual example) was > 50 µM and > 47.1 µg/mL. The MBC ([7]; read-out: MBC (from Set 3) Mtb H37Rv) was 6.25 µM and 5.88 µg/mL, the MBC ([7]; individual example, read-out: MBC Mtb H37Rv) was 6.3 µM and 5.9 µg/mL and the “MIC Mtb # 11291” value [8] was 0.18 µg/mL (≈ 0.191 µM). For the same compound, the MIC ([8]; read-out: MIC Mtb # 11291) was 0.19 µM (≈ 0.179 µg/mL), the MIC ([9]; Enterococcus faecium, Gram positive, n = 3 well replicates) was > 50 µM and the MIC ([9]; Enterococcus faecium, Gram-Positive Bacteria, replicates 1-3) was > 47 µg/mL. For the same compound, the MIC ([9]; Gram-Positive Bacteria, replicates 1-3) was >50 µM and the “Supplementary Figure 2 dose-response value, replicating H37Rv cells” value [10] was 98.0652 and 83.9808 and 80.51.
